# Residues, ends and D or L forms follow the SMILES beside them.
# Key:
# [1] = target: T1, PKMζ (Homo sapiens, UniProt Q05513); assay: Inhibition of PKMζ (IC50); assay type: biochemical
# T1 construct: made in house; host or cells: Spodoptera frugiperda Sf9 cells, baculovirus
# T1 sequence (Q05513 1-409 isoform Q05513-2): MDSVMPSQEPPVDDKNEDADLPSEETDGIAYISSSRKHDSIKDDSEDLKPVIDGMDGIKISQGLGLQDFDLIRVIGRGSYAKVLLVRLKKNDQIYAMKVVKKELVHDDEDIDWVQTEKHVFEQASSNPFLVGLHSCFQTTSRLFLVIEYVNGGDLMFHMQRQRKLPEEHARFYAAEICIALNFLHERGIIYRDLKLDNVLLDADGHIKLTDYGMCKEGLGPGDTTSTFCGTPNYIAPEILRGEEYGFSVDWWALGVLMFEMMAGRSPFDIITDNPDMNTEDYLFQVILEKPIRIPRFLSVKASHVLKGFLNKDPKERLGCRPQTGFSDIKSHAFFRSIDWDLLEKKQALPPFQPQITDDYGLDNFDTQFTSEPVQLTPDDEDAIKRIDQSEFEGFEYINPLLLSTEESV
# [2] = target: PKC gamma (Homo sapiens, UniProt P05129); assay: Inhibition of PKC gamma (IC50); assay type: biochemical
# [3] = tested on: LTP maintenance; assay: Reversal of LTP maintenance; assay type: cell-based; conditions: 1 μM
# [4] = tested on: AMPA/kainate EPSCs in CA1 pyramidal cells; assay: Intracellular perfusion of PKMζ into CA1 pyramidal cells, whole-cell recording of evoked EPSCs; assay type: cell-based, Sprague-Dawley rats
# Description: PKMζ, purified from a baculovirus/Sf9 expression system to near homogeneity, was perfused into a CA1 pyramidal cell through a whole cell recording pipette (FIGS. 1A-1B). […] In order to isolate AMPA/kainate responses, the cell, recorded at the soma, was voltage-clamped at the IPSC reversal potential (˜−70) and Cs-gluconate-based electrode solution was used (to block GABAB effects). […] Over 5-10 min, there was ˜60% increase in AMPA/kainate EPSCs, which then stabilized. In contrast, inactivated PKMζ had no effect.
# Hippocampal slices were prepared from Sprague-Dawley rats as described in Example 2. Patch electrodes were pulled (two-stage) from […] O.D. borosilicate glass (World Precision Instruments, Sarasota, Fla.) on a Narishige PP-83 vertical puller. Recording pipettes had tip resistances of 2-5 MΩ and contain (in mM): Cs-gluconate or K-gluconate 130-; MgCl2, 2; CaCl2, 2; EGTA, 10; HEPES, 10; Na-ATP, 2; pH adjusted to 7.25 with either CsOH or KOH. […] Cesium was used to block potassium currents, including slow GABAB IPSCs. Electrode solutions included QX-314 (10 mM) to block […] currents to prevent cell spike discharges at depolarized holding potentials. Whole-cell recordings were obtained from CA1 pyramidal cells using blind patch techniques. The recording pipette was slowly advanced through the tissue, with brief voltage steps (−10 mV, 10 ms) applied to monitor electrode resistance. Once a deflection in the electrode's current response was detected signifying contact with the membrane of the target cell soma, slight negative pressure was applied to form a cell-electrode seal of >1 GΩ.
# Membrane breakthrough was accomplished with either additional suction or current pulses. […] Signals were recorded under voltage-clamp with an Axoclamp 2A amplifier (Axon Instruments, Foster City, Calif.). Resting input resistance was measured from the current response to a −10 mV voltage step from holding potential. […]
# The effects of PKMζ cell injection on excitatory synaptic currents were assessed by including the kinase in the whole-cell pipette and measuring EPSC amplitude over time. […]
# [5] = target: T1, PKMζ; assay: Inhibition of phosphorylation of exogenous substrates by various protein kinases (specificity of chelerythrine); assay type: biochemical; conditions: versus PKC alpha, PKC epsilon (MBP substrate), CaM-kinase II (Syntide)
# From the text: PKCA is PKC alpha phosphorylation of myelin basic protein (MBP). PKCE is PKC epsilon phosphorylation of MBP. PKM is PKMζ phosphorylation of MBP. CKII is Ca^2+-calmodulin-dependent protein kinase II phosphorylation of Syntide® (Calbiochem, San Diego, Calif.) peptide substrate.
molecule,measurement,setting,value
"CCCCCCCCCCCCCC(=O)N[C@@H](CO)C(=O)N[C@H](C(=O)N[C@@H](Cc1ccc(O)cc1)C(=O)N[C@@H](CCCNC(=N)N)C(=O)N[C@@H](CCCNC(=N)N)C(=O)NCC(=O)N[C@@H](C)C(=O)N[C@@H](CCCNC(=N)N)C(=O)N[C@@H](CCCNC(=N)N)C(=O)N[C@@H](Cc1c[nH]c2ccccc12)C(=O)N[C@@H](CCCNC(=N)N)C(=O)N[C@@H](CCCCN)C(=O)N[C@@H](CC(C)C)C(=O)O)[C@@H](C)CC [MZIP, myr-Ser-Ile-Tyr-Arg-Arg-Gly-Ala-Arg-Arg-Trp-Arg-Lys-Leu-OH] (HELM PEPTIDE1{[CCCCCCCCCCCCCC(=O)[*:2]].S.I.Y.R.R.G.A.R.R.W.R.K.L}$$$$V2.0)",IC50,[1],0.01 to 0.1 µM
same,IC50,[2],10 µM
same,effect on LTP maintenance,[3],reverses LTP maintenance
COc1ccc2c(c[n+](C)c3c4cc5c(cc4ccc23)OCO5)c1OC [chelerythrine],reversal of PKMζ-induced increases in synaptically evoked AMPA/kainate responses,"[4]; 3 nM PKM in pipette, chelerythrine 1 uM in bath",reversible
same,selectivity as an inhibitor of PKM activity relative to other protein kinases,[5],greater than 10 fold
"PKMζ: independent catalytic domain of the PKCζ isoform, purified from a baculovirus/Sf9 expression system",increase in AMPA/kainate EPSCs,"[4]; about 0.8 nM PKMζ in whole cell pipette, over 5-10 min, then stabilized, voltage-clamped ~-70",~60%
same,potency in potentiation of AMPA/kainate currents relative to CaM-kinase II,[4]; compared with reported concentration of autoactive thiophosphorylated CaM-kinase II,200- to 1000 fold

# Source: patent US7605119B2, “Memory enhancing protein method” (The Research Foundation of State University of New York, priority 2000, dated 2009)
